According to US9714433B2, “Human pluripotent stem cells induced from undifferentiated stem cells derived from a human postnatal tissue” (Kyoto University, priority 2007, dated 2017):

How the values were obtained:
[1] = test system: cells derived from mouse bone marrow; experiment: Induction of mouse pluripotent stem cells by three gene introduction and MS-275 treatment (colony formation, alkaline phosphatase staining); assay type: cell-based
Protocol: Staining for confirming alkaline phosphatase activity which is a characteristic of pluripotent stem cells was conducted in the following manner. After removing the culture medium, a 10% formalin neutral buffer solution was added to wells, and cells were fixed at room temperature for 5 minutes. After washing with a phosphate buffer etc., a chromogenic substrate of alkaline phosphatase, 1 step NBT/BCIP (manufactured by Pierce) was added and reacted at room temperature for 20 to 30 minutes. Cells having alkaline phosphatase activity were all stained blue violet.
The primary culture cells derived from mouse bone marrow containing undifferentiated stem cells that had been stored frozen after preparing in a manner similar to Example 11 were plated at a concentration of 5×10^3 cells/cm^2 on a 24-well plastic plate (manufactured by Becton Dickinson) having the bottom which had been gelatin-coated with a 0.1% gelatin/phosphate buffer, and 2 ml each of the MAPC medium was added.
Eight hours later, the medium was removed, 2 ml each of the three gene (human Oct3/4, Sox2 and Klf4) retrovirus vector solution prepared as in Example 1 were added, and after further adding MS-275, a histone deacetylase inhibitor, at a final concentration of 1 or 0.1 μM, they were cultured at 37° C. for 14 hours. […]

mouse Nanog = experiment: Nanog expression of colonies by quantitative PCR; assay type: cell-based; settings: three genes + MS-275 0.1 or 1.0 μM; compared with alkaline phosphatase-negative colonies; FIG. 3
Protocol: The expression of target gene of each colony including an alkaline phosphatase-positive colonies was determined using quantitative PCR in the following manner. Colonies developed by the induction of pluripotent stem cells were harvested, and RNA was extracted using the Recoverall total nucleic acid isolation kit for FFPE (manufactured by Ambion). After synthesizing cDNA from the extracted RNA, the target gene was amplified using the Taqman Preamp mastermix (manufactured by Applied Biosystems). As the primers for quantitative PCR, the Taqman gene exprESsion assay (manufactured by Applied Biosystems) was used. […] Human Hprt: Hs99999909_m1, human Nanog: Hs02387400_g1, human Tert: Hs00162669_m1, Mouse Hprt: Mm01545399_m1, mouse Nanog: Ma02019550_s1. Then, the amount expressed of the Nanog gene was confirmed by quantitative PCR, and the expression of mouse Nanog of colonies of pluripotent stem cells having alkaline phosphatase activity was confirmed (FIG. 3).

syngeneic C57BL/6N mice = experiment: Teratoma formation of induced mouse pluripotent stem cells transplanted subcutaneously; assay type: in vivo; settings: cells induced by three genes + MS-275; 2×10^7 cells/mouse subcutaneously; 34 days later; three germ layers observed
Protocol: From the extracted teratoma, slices were prepared, and differentiation potential into three germ layers was analyzed by immunological and histological staining (HE stain, alcian blue stain). As a result, GFAP-positive cells (the nervous system) and keratin producing cells (skin cells) as the ectodermic system, smooth muscle actin-positive cells (smooth muscle cells), bone tissues and cartilage tissues as the mesodermic system, and intestinal tract tissues (endodermal epithelium positive for MUC-1) as the endodermic system were observed.

With `Nc1ccccc1NC(=O)c1ccc(CNC(=O)OCc2cccnc2)cc1` [MS-275, N-(2-aminophenyl)-4-[N-(pyridine-3-yl-methoxycarbonyl)aminomethyl]benzamide] the “formation of pluripotent stem cell colonies” value ([1]; three genes (human Oct3/4, Sox2, Klf4) retrovirus + MS-275 1 or 0.1 μM, fifteen days after) was “formed colonies composed of mouse ES cell-like small cells”, the “alkaline phosphatase activity staining of colonies” value ([1]; three genes + MS-275 1 or 0.1 μM) was “stained blue violet by alkaline phosphatase activity” and the “expression of Nanog in alkaline phosphatase-positive colonies” value (mouse Nanog) was “significantly higher than the alkaline phosphatase-negative colonies”. For the same compound, the teratoma formation (syngeneic C57BL/6N mice) was “teratoma that formed was extracted”.
